Results on 10 compounds are retold here after ChEMBL document CHEMBL4017503, “Identification of a New Zinc Binding Chemotype by Fragment Screening” (J Med Chem, 2017).

Each structure is given as a SMILES string.

One series has as its target Carbonic anhydrase 2 (Homo sapiens, UniProt P00918). In words: Binding affinity to human carbonic anhydrase 2 by surface plasmon resonance spectrometry.
Series [1] in a line: Dissociation constant, pKa of the compound. Format: physicochemical.

With `O=C1NC(=O)C(c2ccccc2)N1` (stereo not given), on Carbonic anhydrase 2, the Kd was > 2 mM.

`O=C1NC(=O)C(Cc2ccccc2)N1` (stereo not given): the equilibrium dissociation constant (Kd) on Carbonic anhydrase 2 is > 2 mM.

Take `COc1ccc(/C=C2\SC(=O)NC2=O)c(OC)c1`: the Kd at Carbonic anhydrase 2 was > 2 mM.

As to `O=C1NC(=O)/C(=C/c2ccccc2)N1`, the Kd at Carbonic anhydrase 2 is > 2 mM.

Turning to `COc1ccc(/C=C2\NC(=O)NC2=O)c(OC)c1`, the Kd on Carbonic anhydrase 2 is > 2 mM.

As for `COc1ccc(/C=C2\NC(=S)NC2=O)c(OC)c1`, on Carbonic anhydrase 2, the dissociation constant Kd was > 2 mM.

In the case of `COc1ccc(CC2NC(=O)NC2=O)c(OC)c1` (stereo not given), at Carbonic anhydrase 2, the Kd is > 2 mM.

In the case of `CC1(C)OC(=O)NC1=O` [DIMETHADIONE], the Kd at Carbonic anhydrase 2 was > 2 mM.

In the case of `O=C1NC(=O)C(c2ccccc2)O1` (stereo not given) [PEMOLINE DIONE], in series [1], the pKa turned out to be 5.5.

With `CN1C(=O)OC(C)(C)C1=O` [TRIMETHADIONE], the dissociation constant Kd at Carbonic anhydrase 2 is > 2 mM.
